The values below come from ChEMBL document CHEMBL4680158, “C6-O-alkylated 7-deazainosine nucleoside analogues: Discovery of potent and selective anti-sleeping sickness agents” (Eur J Med Chem, 2020).

Data set [1] relates to Trypanosoma brucei brucei. Kind of data set: Antitrypanosomal activity against Trypanosoma brucei brucei assessed as reduction in parasite growth incubated for 3 days by resazurin dye based fluorescence assay. The format is functional, organism-based. The settings on record: 72 h.
Data set [2] relates to Trypanosoma brucei rhodesiense. In words: Antitrypanosomal activity against Trypanosoma brucei rhodesiense assessed as reduction in parasite growth incubated for 3 days by resazurin dye based fluorescence assay. The format is functional, organism-based. The settings on record: 72 h.
For another data set, the system named is MRC5. In words: Cytotoxicity against human MRC5 cells assessed as reduction in cell viability incubated for 3 days by resazurin dye based fluorescence assay. As to conditions: MRC5, 72 h.
Data set [3] can be described thus: Selectivity index, ratio of EC50 for cytotoxicity against human MRC5 cells to EC50 for antitrypanosomal activity against Trypanosoma brucei brucei. As to conditions: read-out: Ratio EC50. The format is toxicity, cell-based.
A short description of data set [4]: Selectivity index, ratio of EC50 for cytotoxicity against human MRC5 cells to EC50 for antitrypanosomal activity against Trypanosoma brucei rhodesiense. The format is toxicity, cell-based. As to conditions: read-out: Ratio EC50.
Data set [5] has as its system Trypanosoma brucei brucei. In words: Antitrypanosomal activity against Trypanosoma brucei brucei Lister 427 blood stream forms assessed as reduction in parasite viability incubated for 48 hrs by resazurin dye based fluorescence assay. The format is functional, organism-based. The settings on record: Lister 427, 48 h.
In data set [6] the test system is Trypanosoma brucei. Kind of data set: Antitrypanosomal activity against drug resistant Trypanosoma brucei harboring TbAT1 deficient assessed as reduction in parasite viability incubated for 48 hrs by resazurin dye based fluorescence assay. The format is functional, organism-based.
Data set [7] can be described thus: Resistance factor, ratio of EC50 for antitrypanosomal activity against drug resistant Trypanosoma brucei harboring TbAT1 deficient to antitrypanosomal activity against Trypanosoma brucei brucei Lister 427 blood stream form. The format is functional.
For data set [8], the system named is Trypanosoma brucei. In words: Antitrypanosomal activity against drug resistant Trypanosoma brucei B48 assessed as reduction in parasite viability incubated for 48 hrs by resazurin dye based fluorescence assay. The format is functional, organism-based. The settings on record: B48, 48 h.
The nature of data set [9]: Resistance factor, ratio of EC50 for antitrypanosomal activity against drug resistant Trypanosoma brucei B48 to antitrypanosomal activity against Trypanosoma brucei brucei Lister 427 blood stream form. The format is functional.
The test system of data set [10] is Trypanosoma brucei. Kind of data set: Antitrypanosomal activity against drug resistant Trypanosoma brucei ISMR1 assessed as reduction in parasite viability incubated for 48 hrs by resazurin dye based fluorescence assay. The format is functional, organism-based. As to conditions: ISMR1, 48 h.
A short description of data set [11]: Resistance factor, ratio of EC50 for antitrypanosomal activity against drug resistant Trypanosoma brucei ISMR1 to antitrypanosomal activity against Trypanosoma brucei brucei Lister 427 blood stream form. The data set is classed as functional.
The nature of data set [12]: (§1) Inhibition of Trypanosoma brucei P1 transporter assessed as reduction in [3H]-adenosine uptake measured after 60 sec by scintillation counting method.
Data set [13] is described as follows: (§2) Inhibition of Trypanosoma brucei P2 transporter assessed as reduction in [3H]-adenosine uptake measured after 60 sec by scintillation counting method.
A short description of data set [14]: Inhibition of Trypanosoma brucei P1 transporter assessed as reduction in [3H]-adenosine uptake by scintillation counting method.
Data set [15] in a line: Inhibition of Trypanosoma brucei P2 transporter assessed as reduction in [3H]-adenosine uptake by scintillation counting method.
Data set [16] has as its system Trypanosoma brucei. The description is as §1.
Data set [17] concerns Trypanosoma brucei. Described as §2.

On to `CCOc1ncnc2c1c(Cl)cn2[C@@H]1O[C@H](CO)[C@@H](O)[C@H]1O`, for which the EC50 in [1] is 120 nM; in [2], 57 nM; in the data set with MRC5 it was ≥ 64000 nM; in [5] it was 79 nM; in the data set on Trypanosoma brucei [6], 113 nM; in the data set on Trypanosoma brucei [8], 134 nM. Further, in the data set with Trypanosoma brucei [10], the EC50 turned out to be 194 nM. Moreover, the selectivity ratio is > 275 in [3] and > 578 in [4]. Besides, the Ratio EC50 in data set [7] was 1.43; in data set [9], 1.7; in [11], 2.45. Besides, the inhibition constant Ki came out at 99000 nM in data set [12] and 139000 nM in [13].

Regarding `COc1ncnc2c1c(Cl)cn2[C@@H]1O[C@H](CO)[C@@H](O)[C@H]1O`, the concentration for a half-maximal effect (EC50) in data set [1] is 160 nM; in [2] it was 36 nM; with MRC5, ≥ 32000 nM; in data set [5], 100 nM; in the data set on Trypanosoma brucei [6], 57 nM; in the data set on Trypanosoma brucei [8], 57 nM. In addition, in the data set with Trypanosoma brucei [10], the 50% effective concentration (EC50) was determined as 84 nM. Further, the selectivity ratio in data set [3] is > 200; in data set [4] it was > 888. In addition, the figures for the Ratio EC50 in data set [7], in data set [9] and in [11] were 0.57, 0.57 and 0.84, respectively. Further, the Ki came out at 35500 nM in [12] and 149000 nM in data set [13].

As for `CC[n+]1c(-c2ccccc2)c2cc(N/N=N/c3cccc(C(=N)N)c3)ccc2c2ccc(N)cc21`, the Ratio EC50 in data set [7] was 1.2; in [9] it was 0.85; in data set [11], 4.8.

On to `CC(C)Oc1ncnc2c1c(Cl)cn2[C@@H]1O[C@H](CO)[C@@H](O)[C@H]1O`, for which the 50% effective concentration (EC50) in [1] was 90 nM; in [2], 100 nM; with MRC5, > 64000 nM; in data set [5], 184 nM; in the data set on Trypanosoma brucei [6] it was 198 nM; in the data set with Trypanosoma brucei [8] it was 188 nM. Further, the 50% effective concentration (EC50) with Trypanosoma brucei [10] came to 270 nM. Moreover, the selectivity ratio in data set [3] was > 711; in [4] it was > 640. Also, the Ratio EC50 in data set [7] was found to be 1.08; in data set [9] it was 1.02; in data set [11], 1.47. The results for the inhibitory constant (Ki) in data set [12] and in data set [13] were 284000 nM and 246000 nM, respectively.

Turning to `Nc1ncnc2c1ccn2[C@@H]1O[C@H](CO)[C@@H](O)[C@H]1O` [TUBERCIDIN], the Ki was determined as 78000 nM in [14] and 3800 nM in [15].

Take `COc1ncnc2c1c(Br)cn2[C@@H]1O[C@H](CO)[C@@H](O)[C@H]1O`: the concentration for a half-maximal effect (EC50) in data set [1] is 190 nM; in data set [2] it was 36 nM; in the data set with MRC5 it was > 64000 nM; in data set [5] it was 117 nM; in the data set with Trypanosoma brucei [6] it was 83 nM; with Trypanosoma brucei [8] it was 90 nM. The EC50 with Trypanosoma brucei [10] turned out to be 99 nM. Also, the values for the selectivity ratio in data set [3] and in data set [4] were > 336 and > 1780, respectively. In addition, the values for the Ratio EC50 in data set [7], in data set [9] and in data set [11] were 0.71, 0.77 and 0.85, respectively.

For the compound `Nc1ncnc2c1ncn2[C@@H]1O[C@H](CO)[C@@H](O)[C@H]1O`, the Km in the data set with Trypanosoma brucei [16] was 0.12 µM; with Trypanosoma brucei [17], 0.53 µM.
